Patent US6645918B1, “N-([1,2,4]triazoloazinyl)thiophenesulfonamide compounds and their use as herbicides” (Dow AgroSciences LLC, priority 2000, dated 2003)

Legend:
Type in all cases: in vivo
[1] = test system: chickweed (Stellaria media); assay: Postemergence herbicidal activity, chickweed; details: foliar spray, visual after 2 weeks, 0 no injury, 100 complete kill
In short: (§1)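 Injury rated visually at 2 weeks, 0 (none) to 100% (complete kill), relative to carrier-sprayed controls. Foliar spray applied to 7–21-day-old seedlings at first or second true leaf, with rates in ppm (1 ppm ≈ 1 g/ha) in an aqueous acetone/DMSO/crop oil/surfactant mix.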

[2] = test system: cocklebur (Xanthium strumarium); assay: Postemergence herbicidal activity, cocklebur; details: foliar spray, visual after 2 weeks, 0 no injury, 100 complete kill
In short: as §1

[3] = test system: lambsquarters (Chenopodium album); assay: Postemergence herbicidal activity, lambsquarters; details: foliar spray, visual after 2 weeks, 0 no injury, 100 complete kill
In short: as §1

[4] = test system: morningglory (Ipomoea hederacea); assay: Postemergence herbicidal activity, morningglory; details: foliar spray, visual after 2 weeks, 0 no injury, 100 complete kill
In short: as §1

[5] = test system: pigweed (Amaranthus retroflexus); assay: Postemergence herbicidal activity, pigweed; details: foliar spray, visual after 2 weeks, 0 no injury, 100 complete kill
In short: as §1

[6] = test system: velvetleaf (Abutilion theophrasti); assay: Postemergence herbicidal activity, velvetleaf; details: foliar spray, visual after 2 weeks, 0 no injury, 100 complete kill
In short: as §1

viola (Viola tricolor) = assay: Postemergence herbicidal activity, viola; details: foliar spray, visual after 2 weeks, 0 no injury, 100 complete kill
In short: as §1

[7] = test system: wild buckwheat (Polygonum convolvulus); assay: Postemergence herbicidal activity, wild buckwheat; details: foliar spray, visual after 2 weeks, 0 no injury, 100 complete kill
In short: as §1

[8] = test system: blackgrass (Alopecurus myosuroides); assay: Postemergence herbicidal activity, blackgrass; details: foliar spray, visual after 2 weeks, 0 no injury, 100 complete kill
In short: as §1

[9] = test system: giant foxtail (Setaria faberi); assay: Postemergence herbicidal activity, giant foxtail; details: foliar spray, visual after 2 weeks, 0 no injury, 100 complete kill
In short: as §1

[10] = test system: Rox orange sorghum (Sorghum bicolor); assay: Postemergence herbicidal activity, Rox orange sorghum; details: foliar spray, visual after 2 weeks, 0 no injury, 100 complete kill
In short: as §1

wild oats (Avena fatua) [11] = assay: Postemergence herbicidal activity, wild oats; details: foliar spray, visual after 2 weeks, 0 no injury, 100 complete kill
In short: as §1

[12] = test system: cocklebur (Xanthium strumarium); assay: Preemergence herbicidal activity, cocklebur; details: soil spray, visual after 3 weeks, 0 no injury, 100 complete kill or no germination
In short: (§2)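 Visual rating 3 weeks after treatment, 0-100% injury versus untreated pots, where 100 means complete kill or no germination. Soil of seeded pots was sprayed preemergence with aqueous Tween 155 dilutions of acetone/DMSO stocks, up to 4.48 kg/ha. Plants were grown in a greenhouse at about 23-29 °C day/22-28 °C night with ~15 h light.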

[13] = test system: lambsquarters (Chenopodium album); assay: Preemergence herbicidal activity, lambsquarters; details: soil spray, visual after 3 weeks, 0 no injury, 100 complete kill or no germination
In short: as §2

[14] = test system: morningglory (Ipomoea hederacea); assay: Preemergence herbicidal activity, morningglory; details: soil spray, visual after 3 weeks, 0 no injury, 100 complete kill or no germination
In short: as §2

[15] = test system: pigweed (Amaranthus retroflexus); assay: Preemergence herbicidal activity, pigweed; details: soil spray, visual after 3 weeks, 0 no injury, 100 complete kill or no germination
In short: as §2

[16] = test system: velvetleaf (Abutilion theophrasti); assay: Preemergence herbicidal activity, velvetleaf; details: soil spray, visual after 3 weeks, 0 no injury, 100 complete kill or no germination
In short: as §2

[17] = test system: wild poinsettia (Euphorbia heterophylla); assay: Preemergence herbicidal activity, wild poinsettia; details: soil spray, visual after 3 weeks, 0 no injury, 100 complete kill or no germination
In short: as §2

[18] = test system: blackgrass (Alopecurus myosuroides); assay: Preemergence herbicidal activity, blackgrass; details: soil spray, visual after 3 weeks, 0 no injury, 100 complete kill or no germination
In short: as §2

[19] = test system: barnyardgrass (Echinochloa crus-galli); assay: Preemergence herbicidal activity, barnyardgrass; details: soil spray, visual after 3 weeks, 0 no injury, 100 complete kill or no germination
In short: as §2

[20] = test system: crabgrass (Digitaria sanguinalis); assay: Preemergence herbicidal activity, crabgrass; details: soil spray, visual after 3 weeks, 0 no injury, 100 complete kill or no germination
In short: as §2

[21] = test system: giant foxtail (Setaria faberi); assay: Preemergence herbicidal activity, giant foxtail; details: soil spray, visual after 3 weeks, 0 no injury, 100 complete kill or no germination
In short: as §2

[22] = test system: Rox orange sorghum (Sorghum bicolor); assay: Preemergence herbicidal activity, Rox orange sorghum; details: soil spray, visual after 3 weeks, 0 no injury, 100 complete kill or no germination
In short: as §2

wild oats (Avena fatua) [23] = assay: Preemergence herbicidal activity, wild oats; details: soil spray, visual after 3 weeks, 0 no injury, 100 complete kill or no germination
In short: as §2

Compound: COc1cc(OC)n2nc(NS(=O)(=O)c3c(OC)csc3Cl)nc2n1 [Compound 19]
- STEME postemergence injury score 0-100 ([1]; 15.6 ppm): 95%
- XANST postemergence injury score 0-100 ([2]; 15.6 ppm): 95%
- CHEAL postemergence injury score 0-100 ([3]; 15.6 ppm): 100%
- IPOHE postemergence injury score 0-100 ([4]; 15.6 ppm): 80%
- AMARE postemergence injury score 0-100 ([5]; 15.6 ppm): 100%
- ABUTH postemergence injury score 0-100 ([6]; 15.6 ppm): 80%
- VIOTR postemergence injury score 0-100 (viola (Viola tricolor); 15.6 ppm): 100%
- POLCO postemergence injury score 0-100 ([7]; 15.6 ppm): 95%
- ALOMY postemergence injury score 0-100 ([8]; 15.6 ppm): 70%
- SETFA postemergence injury score 0-100 ([9]; 15.6 ppm): 100%
- SORBI postemergence injury score 0-100 ([10]; 15.6 ppm): 100%
- AVEFA postemergence injury score 0-100 (wild oats (Avena fatua) [11]; 15.6 ppm): 100%
- XANST preemergence injury score 0-100 ([12]; 8.8 g/Ha): 50%
- CHEAL preemergence injury score 0-100 ([13]; 8.8 g/Ha): 90%
- IPOHE preemergence injury score 0-100 ([14]; 8.8 g/Ha): 90%
- AMARE preemergence injury score 0-100 ([15]; 8.8 g/Ha): 75%
- ABUTH preemergence injury score 0-100 ([16]; 8.8 g/Ha): 95%
- EPHHL preemergence injury score 0-100 ([17]; 8.8 g/Ha): 90%
- ALOMY preemergence injury score 0-100 ([18]; 8.8 g/Ha): 95%
- ECHCG preemergence injury score 0-100 ([19]; 8.8 g/Ha): 95%
- DIGSA preemergence injury score 0-100 ([20]; 8.8 g/Ha): 100%
- SETFA preemergence injury score 0-100 ([21]; 8.8 g/Ha): 100%
- SORBI preemergence injury score 0-100 ([22]; 8.8 g/Ha): 95%
- AVEFA preemergence injury score 0-100 (wild oats (Avena fatua) [23]; 8.8 g/Ha): 100%

Compound: COc1csc(Cl)c1S(=O)(=O)Nc1nc2c(Cl)cnc(OC)n2n1 [Compound 20]
- STEME postemergence injury score 0-100 ([1]; 31.3 ppm): 85%
- XANST postemergence injury score 0-100 ([2]; 31.3 ppm): 100%
- CHEAL postemergence injury score 0-100 ([3]; 31.3 ppm): 75%
- IPOHE postemergence injury score 0-100 ([4]; 31.3 ppm): 75%
- AMARE postemergence injury score 0-100 ([5]; 31.3 ppm): 95%
- ABUTH postemergence injury score 0-100 ([6]; 31.3 ppm): 85%
- VIOTR postemergence injury score 0-100 (viola (Viola tricolor); 31.3 ppm): 90%
- POLCO postemergence injury score 0-100 ([7]; 31.3 ppm): 90%
- ALOMY postemergence injury score 0-100 ([8]; 31.3 ppm): 30%
- SETFA postemergence injury score 0-100 ([9]; 31.3 ppm): 50%
- SORBI postemergence injury score 0-100 ([10]; 31.3 ppm): 85%
- AVEFA postemergence injury score 0-100 (wild oats (Avena fatua) [11]; 31.3 ppm): 70%
- XANST preemergence injury score 0-100 ([12]; 17.5 g/Ha): 60%
- CHEAL preemergence injury score 0-100 ([13]; 17.5 g/Ha): 70%
- IPOHE preemergence injury score 0-100 ([14]; 17.5 g/Ha): 70%
- AMARE preemergence injury score 0-100 ([15]; 17.5 g/Ha): 80%
- ABUTH preemergence injury score 0-100 ([16]; 17.5 g/Ha): 80%
- EPHHL preemergence injury score 0-100 ([17]; 17.5 g/Ha): 50%
- ALOMY preemergence injury score 0-100 ([18]; 17.5 g/Ha): 90%
- ECHCG preemergence injury score 0-100 ([19]; 17.5 g/Ha): 95%
- DIGSA preemergence injury score 0-100 ([20]; 17.5 g/Ha): 85%
- SETFA preemergence injury score 0-100 ([21]; 17.5 g/Ha): 50%
- SORBI preemergence injury score 0-100 ([22]; 17.5 g/Ha): 90%
- AVEFA preemergence injury score 0-100 (wild oats (Avena fatua) [23]; 17.5 g/Ha): 90%

Compound: COc1csc(Cl)c1S(=O)(=O)Nc1nc2c(C)cnc(OC)n2n1 [Compound 21]
- STEME postemergence injury score 0-100 ([1]; 62.5 ppm): 100%
- XANST postemergence injury score 0-100 ([2]; 62.5 ppm): 90%
- CHEAL postemergence injury score 0-100 ([3]; 62.5 ppm): 100%
- IPOHE postemergence injury score 0-100 ([4]; 62.5 ppm): 80%
- AMARE postemergence injury score 0-100 ([5]; 62.5 ppm): 100%
- ABUTH postemergence injury score 0-100 ([6]; 62.5 ppm): 100%
- VIOTR postemergence injury score 0-100 (viola (Viola tricolor); 62.5 ppm): 90%
- POLCO postemergence injury score 0-100 ([7]; 62.5 ppm): 100%
- ALOMY postemergence injury score 0-100 ([8]; 62.5 ppm): 30%
- SETFA postemergence injury score 0-100 ([9]; 62.5 ppm): 50%
- SORBI postemergence injury score 0-100 ([10]; 62.5 ppm): 100%
- AVEFA postemergence injury score 0-100 (wild oats (Avena fatua) [11]; 62.5 ppm): 75%
- XANST preemergence injury score 0-100 ([12]; 8.8 g/Ha): 50%
- CHEAL preemergence injury score 0-100 ([13]; 8.8 g/Ha): 70%
- IPOHE preemergence injury score 0-100 ([14]; 8.8 g/Ha): 40%
- AMARE preemergence injury score 0-100 ([15]; 8.8 g/Ha): 60%
- ABUTH preemergence injury score 0-100 ([16]; 8.8 g/Ha): 80%
- EPHHL preemergence injury score 0-100 ([17]; 8.8 g/Ha): 60%
- ALOMY preemergence injury score 0-100 ([18]; 8.8 g/Ha): 70%
- ECHCG preemergence injury score 0-100 ([19]; 8.8 g/Ha): 30%
- DIGSA preemergence injury score 0-100 ([20]; 8.8 g/Ha): 40%
- SETFA preemergence injury score 0-100 ([21]; 8.8 g/Ha): 70%
- SORBI preemergence injury score 0-100 ([22]; 8.8 g/Ha): 70%
- AVEFA preemergence injury score 0-100 (wild oats (Avena fatua) [23]; 8.8 g/Ha): 70%
